Consider 2 molecules from paper PMC11156613 (Journal of Advanced Research, 2023).

Assay [1] deals with HEL cells. The assay can be described thus: Apoptosis induction, annexin-V/PI flow cytometry. It counts as cell-based, human. Conditions: 24 h. For orientation: In flow cytometry, cells or beads pass a laser one at a time.
For assay [2], the target named is T1, Recombinant human HDAC6 (Homo sapiens, UniProt Q9UBN7).
T1 sequence (Q9UBN7 1-1215): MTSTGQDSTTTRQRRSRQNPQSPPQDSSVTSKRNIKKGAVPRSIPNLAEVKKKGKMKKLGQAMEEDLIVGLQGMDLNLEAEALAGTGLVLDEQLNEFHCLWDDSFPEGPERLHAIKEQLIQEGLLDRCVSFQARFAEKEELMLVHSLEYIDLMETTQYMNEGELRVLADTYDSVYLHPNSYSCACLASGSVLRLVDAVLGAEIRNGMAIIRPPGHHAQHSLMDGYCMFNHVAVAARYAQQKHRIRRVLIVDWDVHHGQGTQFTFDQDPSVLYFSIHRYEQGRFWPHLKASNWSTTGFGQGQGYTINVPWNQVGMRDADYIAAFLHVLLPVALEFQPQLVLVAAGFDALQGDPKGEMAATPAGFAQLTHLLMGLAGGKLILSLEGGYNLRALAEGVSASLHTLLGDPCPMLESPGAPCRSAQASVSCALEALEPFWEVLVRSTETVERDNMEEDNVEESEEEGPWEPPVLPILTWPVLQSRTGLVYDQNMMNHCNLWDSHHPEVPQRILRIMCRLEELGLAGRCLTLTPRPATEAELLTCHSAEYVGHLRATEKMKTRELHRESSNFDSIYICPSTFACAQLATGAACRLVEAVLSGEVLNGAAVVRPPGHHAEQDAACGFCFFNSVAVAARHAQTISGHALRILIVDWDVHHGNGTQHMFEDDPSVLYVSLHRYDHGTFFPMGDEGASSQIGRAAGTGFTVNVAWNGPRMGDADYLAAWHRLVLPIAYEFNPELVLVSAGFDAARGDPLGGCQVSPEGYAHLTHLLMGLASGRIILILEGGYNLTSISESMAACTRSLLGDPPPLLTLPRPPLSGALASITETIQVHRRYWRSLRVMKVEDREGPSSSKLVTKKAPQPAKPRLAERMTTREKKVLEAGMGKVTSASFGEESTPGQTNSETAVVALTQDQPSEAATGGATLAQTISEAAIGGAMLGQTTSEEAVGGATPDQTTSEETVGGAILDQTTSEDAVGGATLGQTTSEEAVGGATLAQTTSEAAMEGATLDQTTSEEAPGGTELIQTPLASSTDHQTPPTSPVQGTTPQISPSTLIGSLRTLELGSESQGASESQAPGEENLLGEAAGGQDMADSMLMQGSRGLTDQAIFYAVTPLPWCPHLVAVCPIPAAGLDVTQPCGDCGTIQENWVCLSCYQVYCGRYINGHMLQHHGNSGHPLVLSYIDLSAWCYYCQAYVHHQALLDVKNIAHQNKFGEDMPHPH
The assay can be described thus: In vitro HDAC enzymatic assay, HDAC6. It counts as biochemical.

For assay [3], the target named is T2, recombinant human HDAC8 (Homo sapiens, UniProt Q9BY41).
T2 sequence (Q9BY41 1-377): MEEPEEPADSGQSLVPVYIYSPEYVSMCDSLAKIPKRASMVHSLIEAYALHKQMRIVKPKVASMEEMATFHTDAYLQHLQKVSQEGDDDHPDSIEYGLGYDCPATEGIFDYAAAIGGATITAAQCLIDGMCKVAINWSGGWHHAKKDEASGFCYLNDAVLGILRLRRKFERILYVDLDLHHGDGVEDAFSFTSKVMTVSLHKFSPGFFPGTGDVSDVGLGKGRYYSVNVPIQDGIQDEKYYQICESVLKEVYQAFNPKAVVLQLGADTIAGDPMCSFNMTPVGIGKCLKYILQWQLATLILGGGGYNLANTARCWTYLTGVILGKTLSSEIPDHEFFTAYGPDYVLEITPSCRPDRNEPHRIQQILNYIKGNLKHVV
The assay is described as follows: In vitro HDAC8 homogenous fluorescence assay. It counts as biochemical.

For assay [4], the target named is Recombinant human HDAC3/NCOR1 (Homo sapiens, UniProt O15379). The assay can be described thus: In vitro HDAC enzymatic assay, HDAC3.
The target in assay [5] is T3, Recombinant human HDAC11 (Homo sapiens, UniProt Q96DB2).
T3 sequence (Q96DB2 1-347): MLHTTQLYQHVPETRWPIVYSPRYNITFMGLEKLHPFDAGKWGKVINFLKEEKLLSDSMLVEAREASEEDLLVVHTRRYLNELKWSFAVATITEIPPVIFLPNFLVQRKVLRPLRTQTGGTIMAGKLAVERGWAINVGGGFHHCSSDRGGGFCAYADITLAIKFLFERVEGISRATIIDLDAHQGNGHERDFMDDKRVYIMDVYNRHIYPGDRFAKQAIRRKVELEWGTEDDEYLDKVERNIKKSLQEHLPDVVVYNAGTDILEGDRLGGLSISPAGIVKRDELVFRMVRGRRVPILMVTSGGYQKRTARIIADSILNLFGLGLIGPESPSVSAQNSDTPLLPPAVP
The assay can be described thus: In vitro HDAC11 inhibition assay. It counts as biochemical.

In assay [6] the target is Recombinant human HDAC2 (Homo sapiens, UniProt Q92769). The assay can be described thus: In vitro HDAC enzymatic assay, HDAC2. Type of assay: biochemical.
In assay [7] the target is Recombinant human HDAC1 (Homo sapiens, UniProt Q13547). The assay is described as follows: In vitro HDAC enzymatic assay, HDAC1. It counts as biochemical.

Where two headings read alike, the source gives them in different places.

Recombinant human HDAC1, sequence (Q13547 whole entry): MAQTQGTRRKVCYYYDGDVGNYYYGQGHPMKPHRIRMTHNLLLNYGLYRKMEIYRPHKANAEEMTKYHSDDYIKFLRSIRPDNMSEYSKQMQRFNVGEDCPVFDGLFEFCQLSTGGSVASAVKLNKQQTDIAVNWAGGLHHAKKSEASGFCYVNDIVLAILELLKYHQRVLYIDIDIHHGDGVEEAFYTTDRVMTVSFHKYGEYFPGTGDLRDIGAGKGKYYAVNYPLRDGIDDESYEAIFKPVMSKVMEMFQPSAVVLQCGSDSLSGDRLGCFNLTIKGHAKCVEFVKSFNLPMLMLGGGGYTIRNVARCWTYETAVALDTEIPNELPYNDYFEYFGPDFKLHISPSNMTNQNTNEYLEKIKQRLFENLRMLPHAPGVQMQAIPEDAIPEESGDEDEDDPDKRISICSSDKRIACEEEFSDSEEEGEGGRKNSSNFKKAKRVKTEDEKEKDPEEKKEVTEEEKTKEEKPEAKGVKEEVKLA
Recombinant human HDAC3/NCOR1, sequence (O15379 whole entry): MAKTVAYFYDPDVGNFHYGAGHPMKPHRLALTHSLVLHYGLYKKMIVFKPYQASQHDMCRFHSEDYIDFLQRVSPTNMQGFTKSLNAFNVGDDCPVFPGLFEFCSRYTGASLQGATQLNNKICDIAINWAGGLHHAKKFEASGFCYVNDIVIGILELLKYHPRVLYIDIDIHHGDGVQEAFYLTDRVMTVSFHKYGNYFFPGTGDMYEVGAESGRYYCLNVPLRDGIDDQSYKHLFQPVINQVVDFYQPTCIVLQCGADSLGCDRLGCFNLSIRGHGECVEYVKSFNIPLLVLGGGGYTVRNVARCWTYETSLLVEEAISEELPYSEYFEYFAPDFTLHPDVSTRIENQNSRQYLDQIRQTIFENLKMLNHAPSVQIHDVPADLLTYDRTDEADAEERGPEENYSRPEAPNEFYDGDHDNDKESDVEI
Recombinant human HDAC3/NCOR1, sequence (O75376 395-489 partner limits assumed): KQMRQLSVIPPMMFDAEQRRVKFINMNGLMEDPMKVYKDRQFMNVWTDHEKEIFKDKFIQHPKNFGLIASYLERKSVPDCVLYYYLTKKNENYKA
Recombinant human HDAC2, sequence (Q92769 whole entry): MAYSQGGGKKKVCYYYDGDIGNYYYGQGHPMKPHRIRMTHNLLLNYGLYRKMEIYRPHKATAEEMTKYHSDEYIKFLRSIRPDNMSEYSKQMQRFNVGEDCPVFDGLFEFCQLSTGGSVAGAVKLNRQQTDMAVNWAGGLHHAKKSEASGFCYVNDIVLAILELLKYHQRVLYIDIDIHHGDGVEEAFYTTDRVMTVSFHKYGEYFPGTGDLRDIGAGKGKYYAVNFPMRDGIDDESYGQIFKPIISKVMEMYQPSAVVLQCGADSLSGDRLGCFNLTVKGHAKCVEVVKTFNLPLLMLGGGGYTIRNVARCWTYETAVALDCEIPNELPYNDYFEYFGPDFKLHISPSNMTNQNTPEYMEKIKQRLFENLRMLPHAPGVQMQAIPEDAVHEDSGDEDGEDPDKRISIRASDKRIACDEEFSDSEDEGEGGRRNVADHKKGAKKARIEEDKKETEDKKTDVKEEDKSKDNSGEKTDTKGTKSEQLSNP

A word on the IC50: it is the concentration that inhibits the measured activity by half. Regarding `Cl.Cn1cc(CN2CCN(c3ncc(C(=O)NO)cn3)CC2)c2ccccc21` [KH29, N-hydroxy-2-(4-((1-methyl-1H-indol-3-yl)methyl)piperazin-1-yl)pyrimidine-5-carboxamide Hydrochloride], the “concentration at which apoptosis induction starts” value in assay [1] came out at 55 nM. For the same molecule, the IC50 in assay [2] was determined as 25 ± 1 nM; in assay [3], 49 ± 2 nM; in assay [4] it was 20 ± 1 nM; in assay [5], 1000 ± 100 nM; in assay [6], 26 ± 1 nM; in assay [7] (HDAC1 IC50, Ac-RHKK(Acetyl)-AMC substrate, 37 °C) it was 9.4 ± 0.5 nM. In addition, the half-inhibitory concentration (IC50) in assay [7] (HDAC1 IC50, as stated in text) was found to be 9 nM. In addition, the “fold more potent inhibitor of HDAC6 than KH9 and KH16” value in assay [2] (from Table 1 IC50 values) is given as “at least 10 fold”.
Regarding `COc1ccc(/C=C/CN2CCN(c3ncc(C(=O)NO)cn3)CC2)cc1.Cl` [KH9, (E)-N-Hydroxy-2-(4-(3-(4-methoxyphenyl)allyl)piperazin-1-yl)pyrimidine-5-carboxamide Hydrchloride], in assay [1], the “concentration at which apoptosis induction starts” value was “approximately 50 nM”. The IC50 in assay [2] (read-out: HDAC6 IC50, Abz-SRGGK(thio-TFA)FFRR-NH2 substrate) was 140 ± 10 nM; in assay [3] (read-out: HDAC8 IC50, ZMAL 10.5 μM, 90 min, 37 °C), 110 ± 10 nM; in assay [4] (read-out: HDAC3 IC50, Ac-RHKK(Acetyl)-AMC substrate, 37 °C), 19 ± 1 nM; in assay [5] (read-out: HDAC11 IC50) it was 1500 ± 100 nM; in assay [6] (read-out: HDAC2 IC50, Ac-RHKK(Acetyl)-AMC substrate, 37 °C) it was 22 ± 1 nM; in assay [7] (read-out: HDAC1 IC50), 9 nM. The IC50 in assay [7] (read-out: HDAC1 IC50, Ac-RHKK(Acetyl)-AMC substrate, 37 °C) turned out to be 8.9 ± 0.5 nM.
